From ChEMBL document CHEMBL1201862, “PubChem BioAssay data set” (2004)
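Values below derive from 48-hour exposures of cells grown in 96-well plates, with endpoints linearly interpolated between the two concentrations bracketing the appropriate inhibition level. Here, GI50 denotes the concentration required for 50% inhibition of growth.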 Activity calls are given as the source filed them. No stated cut-off is given here; in the data, active = GI50 up to about 1.1 µM and inactive = higher.

Experiments:
Test in all cases: NCI tumour cell line growth inhibition, 48 h
UO-31 = test system: UO-31
NCI-H23 = test system: NCI-H23
TK-10 = test system: TK-10
UACC-62 = test system: UACC-62
A498 = test system: A498
COLO 205 = test system: COLO 205
OVCAR-8 = test system: OVCAR-8
SK-MEL-28 = test system: SK-MEL-28
SF-295 = test system: SF-295
IGROV-1 = test system: IGROV-1
SW-620 = test system: SW-620
K562 = test system: K562
SR = test system: SR
HCT-15 = test system: HCT-15
RXF 393 = test system: RXF 393
SK-OV-3 = test system: SK-OV-3
LOX IMVI = test system: LOX IMVI
RPMI-8226 = test system: RPMI-8226
MDA-N = test system: MDA-N

| Structure (SMILES) | GI50 (UO-31) | GI50 (NCI-H23) | GI50 (TK-10) | GI50 (UACC-62) | GI50 (A498) | GI50 (COLO 205) | GI50 (OVCAR-8) | GI50 (SK-MEL-28) | GI50 (SF-295) | GI50 (IGROV-1) | GI50 (SW-620) | GI50 (K562) | GI50 (SR) | GI50 (HCT-15) [µM] | GI50 (RXF 393) | GI50 (SK-OV-3) | GI50 (LOX IMVI) | GI50 (RPMI-8226) | GI50 (MDA-N) |
| --- | --- | --- | --- | --- | --- | --- | --- | --- | --- | --- | --- | --- | --- | --- | --- | --- | --- | --- | --- |
| C=CCCn1nc(-c2ccccc2)oc1=O | > 100 µM (inactive) | > 100 µM (inactive) | > 100 µM (inactive) | > 100 µM (inactive) | > 100 µM (inactive) | > 100 µM (inactive) | > 100 µM (inactive) | > 100 µM (inactive) | > 100 µM (inactive) | > 100 µM (inactive) | > 100 µM (inactive) | > 100 µM (inactive) | > 100 µM (inactive) | > 100 | > 100 µM (inactive) | > 100 µM (inactive) | > 100 µM (inactive) | – | – |
| CN(c1ccccc1)c1c(Cl)c(=O)oc2c1ccc1occc12 | > 100 µM (inactive) | > 100 µM (inactive) | > 100 µM (inactive) | 40.6 µM (inactive) | > 100 µM (inactive) | – | > 100 µM (inactive) | > 100 µM (inactive) | > 100 µM (inactive) | – | > 100 µM (inactive) | 51.2 µM (inactive) | 44 µM (inactive) | 74 | > 100 µM (inactive) | – | 97.3 µM (inactive) | 86.9 µM (inactive) | – |
| Cc1cn2c(=O)c3ccccc3nc2s1 | > 100 µM (inactive) | > 100 µM (inactive) | > 100 µM (inactive) | > 100 µM (inactive) | > 100 µM (inactive) | > 100 µM (inactive) | > 100 µM (inactive) | > 100 µM (inactive) | > 100 µM (inactive) | > 100 µM (inactive) | > 100 µM (inactive) | > 100 µM (inactive) | > 100 µM (inactive) | – | > 100 µM (inactive) | > 100 µM (inactive) | > 100 µM (inactive) | > 100 µM (inactive) | – |
| O=C(CCC(=O)N/N=C/c1ccccc1O)N/N=C/c1ccccc1O | > 100 µM (inactive) | 94.6 µM (inactive) | 29.4 µM (inactive) | 41.8 µM (inactive) | – | > 100 µM (inactive) | 92 µM (inactive) | 41.1 µM (inactive) | 32.5 µM (inactive) | 33.9 µM (inactive) | > 100 µM (inactive) | > 100 µM (inactive) | > 100 µM (inactive) | 51.4 | 16 µM (inactive) | 18.9 µM (inactive) | – | > 100 µM (inactive) | – |
| COc1cccc(C2c3cc4c(cc3OC(N3CCCC3)C2C)OCO4)c1 (configuration not stated) | 12.1 µM (inactive) | 22.8 µM (inactive) | 18.6 µM (inactive) | 4.66 µM (inactive) | – | 9.77 µM (inactive) | 18.7 µM (inactive) | 8.79 µM (inactive) | 3.04 µM (inactive) | 6.32 µM (inactive) | 4.55 µM (inactive) | 2.69 µM (inactive) | 3.82 µM (inactive) | 4.68 | – | – | 5.71 µM (inactive) | 4.85 µM (inactive) | 1.79 µM (inactive) |
| CC(=O)OC12/C(=N/O)CCCCCC1c1ccccc12 (configuration not stated) | 27.5 µM (inactive) | 70.8 µM (inactive) | > 100 µM (inactive) | 95.5 µM (inactive) | – | > 100 µM (inactive) | > 100 µM (inactive) | > 100 µM (inactive) | 96.8 µM (inactive) | – | > 100 µM (inactive) | 39.2 µM (inactive) | 30.4 µM (inactive) | > 100 | 29.6 µM (inactive) | > 100 µM (inactive) | > 100 µM (inactive) | 33.6 µM (inactive) | – |
| NC1=NC2=c3ccccc3=C(c3cnccn3)C2(c2cnccn2)c2ccccc21 (configuration not stated) | 44.4 µM (inactive) | 91.4 µM (inactive) | 87.9 µM (inactive) | > 100 µM (inactive) | 18.2 µM (inactive) | 32.4 µM (inactive) | 73.3 µM (inactive) | > 100 µM (inactive) | 42.2 µM (inactive) | > 100 µM (inactive) | > 100 µM (inactive) | 66.5 µM (inactive) | 39.5 µM (inactive) | > 100 | > 100 µM (inactive) | > 100 µM (inactive) | 64.4 µM (inactive) | 58.7 µM (inactive) | – |
| Oc1cc(O)c2c(-c3c(O)c(-c4ccc(O)c(O)c4)[o+]c4cc(O)cc(O)c34)c(O)c(-c3ccc(O)c(O)c3)[o+]c2c1 | 40.4 µM (inactive) | 40.3 µM (inactive) | 61.5 µM (inactive) | 22.6 µM (inactive) | 38.5 µM (inactive) | 42.5 µM (inactive) | 36.6 µM (inactive) | 91.2 µM (inactive) | 41.8 µM (inactive) | 48 µM (inactive) | 48.4 µM (inactive) | > 10 µM (inactive) | 25.9 µM (inactive) | 41.8 | 35.9 µM (inactive) | 34.1 µM (inactive) | 32.4 µM (inactive) | 63 µM (inactive) | – |
| CN(C)CCNC(=O)c1cccc2cc3c(Cl)cccc3nc12 | 2.55 µM (inactive) | 1.38 µM (inactive) | 1.95 µM (inactive) | 1.69 µM (inactive) | 1.35 µM (inactive) | 1.01 µM (active) | 1.1 µM (active) | 2.15 µM (inactive) | – | 1.2 µM (inactive) | 0.641 µM (active) | 0.946 µM (active) | 0.308 µM (active) | 1.19 | 1.7 µM (inactive) | 3.53 µM (inactive) | 0.583 µM (active) | 1.64 µM (inactive) | – |
| CN/N=C(/Cc1occc(=O)c1O)C(=O)Nc1ccccc1C | > 100 µM (inactive) | > 100 µM (inactive) | > 100 µM (inactive) | > 100 µM (inactive) | > 100 µM (inactive) | > 100 µM (inactive) | > 100 µM (inactive) | > 100 µM (inactive) | > 100 µM (inactive) | > 100 µM (inactive) | > 100 µM (inactive) | > 100 µM (inactive) | > 100 µM (inactive) | > 100 | – | > 100 µM (inactive) | > 100 µM (inactive) | > 100 µM (inactive) | – |
| NC(=S)N/N=C(\CCC(=O)Nc1ccccc1[N+](=O)[O-])CC(=O)c1ccco1 | > 100 µM (inactive) | > 100 µM (inactive) | > 100 µM (inactive) | > 100 µM (inactive) | 49.3 µM (inactive) | > 100 µM (inactive) | > 100 µM (inactive) | > 100 µM (inactive) | > 100 µM (inactive) | > 100 µM (inactive) | > 100 µM (inactive) | > 100 µM (inactive) | > 100 µM (inactive) | > 100 | > 100 µM (inactive) | > 100 µM (inactive) | > 100 µM (inactive) | > 100 µM (inactive) | – |
| CN=[S+]([O-])(c1ccccc1)c1ccccc1 | > 100 µM (inactive) | > 100 µM (inactive) | > 100 µM (inactive) | > 100 µM (inactive) | > 100 µM (inactive) | > 100 µM (inactive) | > 100 µM (inactive) | > 100 µM (inactive) | > 100 µM (inactive) | > 100 µM (inactive) | > 100 µM (inactive) | > 100 µM (inactive) | > 100 µM (inactive) | > 100 | > 100 µM (inactive) | > 100 µM (inactive) | > 100 µM (inactive) | > 100 µM (inactive) | – |
| COc1ccccc1C(O)(c1ccccc1)C(O)(c1ccccc1)c1ccccc1OC (configuration not stated) | > 100 µM (inactive) | > 100 µM (inactive) | > 100 µM (inactive) | > 100 µM (inactive) | > 100 µM (inactive) | > 100 µM (inactive) | > 100 µM (inactive) | > 100 µM (inactive) | > 100 µM (inactive) | > 100 µM (inactive) | > 100 µM (inactive) | > 100 µM (inactive) | > 100 µM (inactive) | > 100 | > 100 µM (inactive) | > 31.6 µM (inactive) | > 100 µM (inactive) | > 24.4 µM (inactive) | – |
| COC1OC(COCc2ccc(Cl)cc2)C(OCc2ccc(Cl)cc2)C1N=[N+]=[N-] (configuration not stated) | > 100 µM (inactive) | 45.1 µM (inactive) | > 100 µM (inactive) | 15.3 µM (inactive) | – | > 100 µM (inactive) | > 100 µM (inactive) | > 100 µM (inactive) | > 100 µM (inactive) | 72.3 µM (inactive) | > 100 µM (inactive) | 49.8 µM (inactive) | 36.2 µM (inactive) | > 100 | 27.1 µM (inactive) | > 100 µM (inactive) | – | 19.4 µM (inactive) | – |
| CC1=C(C)C(=O)c2c(cc3ccccn23)C1=O | 24.3 µM (inactive) | 10.2 µM (inactive) | 27 µM (inactive) | 15.6 µM (inactive) | 21.2 µM (inactive) | 20.3 µM (inactive) | 22.8 µM (inactive) | 19 µM (inactive) | 17.1 µM (inactive) | 24.5 µM (inactive) | 19.2 µM (inactive) | 27.5 µM (inactive) | 23.3 µM (inactive) | 14.4 | 14.7 µM (inactive) | 20 µM (inactive) | 5.14 µM (inactive) | 15.8 µM (inactive) | – |
| CCOC(=O)N1Cc2ccoc2C1 | > 100 µM (inactive) | > 100 µM (inactive) | > 100 µM (inactive) | > 100 µM (inactive) | – | > 100 µM (inactive) | > 100 µM (inactive) | > 100 µM (inactive) | > 100 µM (inactive) | > 100 µM (inactive) | > 100 µM (inactive) | > 100 µM (inactive) | > 100 µM (inactive) | > 100 | > 100 µM (inactive) | > 100 µM (inactive) | > 100 µM (inactive) | > 100 µM (inactive) | – |
| CC(=O)c1cc2ccccc2[n+]([O-])c1N | – | > 100 µM (inactive) | > 100 µM (inactive) | > 100 µM (inactive) | > 100 µM (inactive) | > 100 µM (inactive) | > 100 µM (inactive) | > 100 µM (inactive) | > 100 µM (inactive) | > 100 µM (inactive) | – | – | > 100 µM (inactive) | > 100 | > 100 µM (inactive) | > 100 µM (inactive) | > 100 µM (inactive) | – | > 100 µM (inactive) |
